Experimental data published in PMC10683482, “Offsetting Low-Affinity Carbohydrate Binding with Covalency to Engage Sugar-Specific Proteins for Tumor-Immune Proximity Induction” (ACS Central Science, 2023).

Experiments:
[1] = system: anti-23F antibody; test: Mass spectrometry study of anti-23F labelling; format: binding, human; settings: 10 µM cARM, 2.7 µM anti-23F, 45 hours
Protocol: To further confirm selectivity, an MS study was conducted to determine the site of labeling (Figures S10 and S11). […] No other labeling site was detected on the light chain; however, the lability of the SO2F-serine/tyrosine linkage to MS sample preparation protocols likely limited complete labeling site coverage. […] Due to the low labeling efficiency of rhamnose-AI-cARM, no labeling site could be identified. […] Determining the selectivity for antirhamnose antibodies in the presence of off-target cell surface proteins will be the focus of future in vivo studies.
Mass Spectrometry Study – Anti-23F Labelling
Anti-23F (2.7 µM) was incubated with 10 µM of Biotin-AI-cAR M 4 or Biotin-SO2F-cAR M 12, or PBS (antibody only) for 45 hours before MS analysis. Analysis was completed by Bioinformatics Solutions
Inc. Briefly, for intact protein analysis each sample was treated with PNGase F to remove glycans followed by LC-MS analysis. To determine site of labelling, each sample was digested with tryspin, chymostrypsin, and pepsin then analyzed by LC-MS/MS on a timsTOF Pro. Peptide spectra were mapped to a known antibody sequence (anti -23F antibody, Creative Biolabs - PABX-173). No labelling was identified with acyl imidazole containing cARM 4. […]
approxima tely 30% labelling post MS protocol (Figure S11)
Figure S10. Sample analysis of peptide mapping of anti-23F heavy chain. Modification with cARM 12 is […]
(1 picture or pasted object on this page, not shown here)

[2] = system: PSMA-expressing target cells (Hek-PSMA, LNCaP, C4-2); test: ADCP assay with anti-23F and U937 monocytes; format: cell-based, human; settings: 8 μM compound with 4 μM anti-23F 24 h; 1 h, 37 °C; flow cytometry
Protocol: Figure 5 Functional analysis of PSMA-targeting SuFEx cARMs. A. Chemical structure of the functional GU cARM molecule used for PSMA targeting. B. Confocal (top) and fluorescent imaging (bottom) of Hek-PSMA cells treated with anti-23F only or anti-23F antibody pre-incubated with rhamnose-SO2F-cARM 14. C. Jurkat activation assay evaluation of 14 directly in polyclonal human IgG. Each cARM/ARM (9 μM) was incubated with polyclonal human IgG (230 μM) overnight and then added to pre-plated Hek-P cells (50,000 cells). To this cell solution, luciferase expressing jurkat cells were added and incubated for 24 hours. Activation of jurkat cells was determined by measuring luciferase expression with a BioGlo assay kit. D. ADCP assays using various PSMA-expressing model and bonafide cancer cell lines. Each cARM/ARM (8 μM) was incubated with anti-23F (4 μM) overnight followed by addition to target cells (150,000 cells). Next, IFN-γ activated monocytes (150,000 cells) were added and incubated for 1 hour at 37 °C. ADCP was determined via flow cytometry.
Finally, the capacity of Rha-cARMs to induce ADCP of multiple target cell lines (varying in PSMA expression) was evaluated. ADCP represents a major mode of antitumor monocyte/macrophage immunotherapeutic function, also invoked by several FDA-approved monoclonal antibody therapies. […]

[3] = system: Hek-PSMA cells; test: Microscopy of induced antibody recruitment (opsonization); format: cell-based, human; settings: 8 μM compound with 4 μM anti-23F 24 h
Protocol: To test the antitumor immune function of rhamnose SO2F cARMs, GU was again incorporated as a TBD for PSMA targeting (compound 14, Figure 5A, Scheme S5). The ability to selectively induce opsonization of model prostate cancer cells via monoclonal anti-23F was first evaluated using fluorescence microscopy (Figure 5B, Figure S12). Compound 14 (8 μM) was incubated with anti-23F (4 μM) for 24 h followed by addition to PSMA expressing Hek-PSMA cells. Following a 20 min incubation, fluorescent secondary antibody was added. […] The addition of rhamnose competitor during the antibody labeling reaction again inhibited covalent antibody engagement and opsonization of target cells (Figure S12).
Figure 5 Functional analysis of PSMA-targeting SuFEx cARMs. A. Chemical structure of the functional GU cARM molecule used for PSMA targeting. B. Confocal (top) and fluorescent imaging (bottom) of Hek-PSMA cells treated with anti-23F only or anti-23F antibody pre-incubated with rhamnose-SO2F-cARM 14. C. Jurkat activation assay evaluation of 14 directly in polyclonal human IgG. Each cARM/ARM (9 μM) was incubated with polyclonal human IgG (230 μM) overnight and then added to pre-plated Hek-P cells (50,000 cells). […] Activation of jurkat cells was determined by measuring luciferase expression with a BioGlo assay kit. […] ADCP was determined via flow cytometry. […]

SMILES	site of labelling (LC-MS/MS peptide mapping) [1]	induction of ADCP [2]	opsonization of target cells [3]
C[C@@H]1O[C@@H](OCc2cn(CCc3cn(C(=O)OCCOCCOCCOCCOCCOCCOCCOCCNC(=O)CCCC[C@@H]4SC[C@@H]5NC(=O)N[C@@H]54)cn3)nn2)[C@H](O)[C@H](O)[C@H]1O [compound 4]	No labelling		
C[C@@H]1O[C@@H](OCc2cn(CCc3cn(C(=O)OCCNC(=O)CCCCCNC(=O)CCCCCNC(=O)CCCCCNC(=O)NCCCC[C@H](NC(=O)N[C@@H](CCC(=O)O)C(=O)O)C(=O)O)cn3)nn2)[C@H](O)[C@H](O)[C@H]1O [compound 10]		nonfunctional	
C[C@@H]1O[C@@H](OCc2cn(CCCNC(=O)OCCNC(=O)CCCCCNC(=O)CCCCCNC(=O)CCCCCNC(=O)NCCCC[C@H](NC(=O)N[C@@H](CCC(=O)O)C(=O)O)C(=O)O)nn2)[C@H](O)[C@H](O)[C@H]1O [compound 11]		failure	failed to opsonize target cells
